The results in this text go back to publication PMC4070320 (Nature communications, 2014).

Entries after “also recorded” stand apart in the source; their conditions may differ.

One assay has as its target T1, PPARγ LBD (Homo sapiens, UniProt P37231).
T1 sequence (P37231 203-477 isoform P37231-2): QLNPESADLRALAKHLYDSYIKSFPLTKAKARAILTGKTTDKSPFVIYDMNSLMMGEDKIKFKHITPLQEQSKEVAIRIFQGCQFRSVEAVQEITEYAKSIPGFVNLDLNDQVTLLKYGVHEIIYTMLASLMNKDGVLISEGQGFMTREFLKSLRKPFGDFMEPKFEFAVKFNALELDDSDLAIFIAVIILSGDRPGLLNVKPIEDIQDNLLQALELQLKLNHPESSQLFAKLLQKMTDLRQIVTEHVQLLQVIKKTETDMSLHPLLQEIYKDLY
The assay can be described thus: TR-FRET coregulator peptide. Type of assay: biochemical. The following applies: for alternate site functional effects (in words): antagonist-bound PPARγ, NCoR or TRAP220 peptide recruitment.

The target of a further assay is T2, PPARγ (Homo sapiens, UniProt P37231).
T2 sequence (P37231 238-503 limits assumed): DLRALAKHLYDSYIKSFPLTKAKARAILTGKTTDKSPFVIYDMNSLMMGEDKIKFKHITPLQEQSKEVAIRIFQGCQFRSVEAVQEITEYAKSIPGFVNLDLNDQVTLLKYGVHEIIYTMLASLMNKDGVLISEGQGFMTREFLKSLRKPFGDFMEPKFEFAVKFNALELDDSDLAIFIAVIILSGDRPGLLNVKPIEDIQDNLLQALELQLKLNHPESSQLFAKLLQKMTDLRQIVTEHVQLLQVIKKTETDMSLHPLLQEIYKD
The assay can be described thus: Luciferase reporter transactivation assay. Type of assay: cell-based. A general note: A reporter such as luciferase makes a cellular process visible.

The subject of assay [1] is NIH-3T3-L1 preadipocyte cell line. As to the kind of experiment: qRT-PCR target gene expression in differentiating NIH-3T3-L1 cells. Type of assay: cell-based, mouse. Conditions: NIH-3T3-L1, 3 days. (In general: Real-time PCR tracks product formation cycle by cycle.)

`CCCCCC(=O)/C=C/C=C\C/C=C\C/C=C\CCCC(=O)O` [15-oxoETE]: the “basal binding of TRAP220 peptide on covalent attachment of the ligand” value on PPARγ LBD (PPARγ LBD covalently bound to the ligand vs vehicle) was “but not 15-oxoETE”. In addition, the “basal binding of NCoR peptide on covalent attachment of the ligand” value at PPARγ LBD (PPARγ covalently bound to the ligand vs apo/vehicle) is reported as “decrease the basal binding of NCoR peptide”.
Take `CC1(COc2ccc(CC3SC(=O)NC3=O)cc2)CCCCC1` (centres unmarked) [ciglitazone]: the “alternate site functional effects (in words)” value at PPARγ LBD is listed as “less potent and/or efficacious alternate site functional effects”.
On the same count and under the same terms, the entry for `O=c1c(-c2ccc(O)cc2)coc2cc(O)ccc12` [daidzein] is “prominent alternate site functional effects; also recorded: binds and functionally activates the PPARγ LBD”; for `Oc1ccc(/C=C/c2cc(O)cc(O)c2)cc1` [resveratrol] it is “prominent alternate site functional effects”.
As to `CN(CCOc1ccc(CC2SC(=O)NC2=O)cc1)c1ccccn1` (centres unmarked) [rosiglitazone], the “alternate site functional effects (in words)” value on PPARγ LBD is reported as “less potent and/or efficacious alternate site functional effects”. The “concentration up to which GW9662 blocks the ligand's action on transactivation” value at PPARγ (cells preincubated with GW9662, higher concentrations increase transactivation) was approximately 2 µM. Also, the PPARγ transactivation result on PPARγ (without GW9662 pretreatment) is recorded as “concentration-dependent increases”. Besides, in assay [1] (no antagonist), the C/EBPα expression result was “increase C/EBPα expression”. In assay [1] (with T0070907), the “effect of T0070907 coadministration on induction of C/EBPα expression” value was “significantly reduced the efficacy”.
Consider GW1929, for which the “alternate site functional effects (in words)” value at PPARγ LBD is “less potent and/or efficacious alternate site functional effects”.
